Test results published in US20230000813A1, “COMPOUND FOR THE TREATMENT OF BOVINE OR SWINE RESPIRATORY DISEASE” (Intervet Inc., priority 2016, published 2023).
Values after ≈ are worked out from the molar mass of the structure shown. Like-named read-outs stand apart in the source and are kept apart here.

Assays:
Assay in all cases: MIC, broth-microdilution (CLSI VET01-A4)
Assay type in all cases: cell-based
[1] = test system: Mannheimia haemolytica MH 13093 (XB0472-6014.1, BRD field isolate)
Experimental: (§1) The Minimum inhibitory concentrations (MIC) of compounds according to the invention for a number of veterinary bacterial pathogens were determined by the broth-microdilution method according to CLSI document VET01-A4.
(§2) Microdilution trays containing a doubling dilution series of the test compound were used for the tests. The MIC results were interpreted according to the CLSI documents VET01-S3. The lowest concentration of compound at which no visible growth (i.e. no turbidity) detected by the unaided eye was recorded as the MIC.

[2] = test system: Mannheimia haemolytica MH 13065 (XB0446-6003.9, BRD field isolate)
Experimental: as §1, §2

[3] = test system: Mannheimia haemolytica MH 6357 (M7/2, reference strain, cattle infection strain); settings: Mannheimia haemolytica MH 6357; for MIC: read-out: MIC MH 6357
Experimental: as §1, §2
(§3) The Minimum inhibitory concentrations (MIC) of compounds according to the invention were determined by the broth-microdilution method according to CLSI document VET01-A4.
(§4) Microdilution trays containing a doubling dilution series of the test compound were used for the tests.
(§5) The MIC results were interpreted according to the CLSI documents VET01-S3. The lowest concentration of compound at which no visible growth (i.e. no turbidity) detected by the unaided eye was recorded as the MIC.

[4] = test system: Pasteurella multocida PM 6267 (P 2225 (L386), reference strain, mouse infection strain); settings: Pasteurella multocida PM 6267; for MIC: read-out: MIC PM 6267
Experimental: as §1, §2, §3, §4, §5

[5] = test system: Mannheimia haemolytica MH 6374 (ATCC 33396, reference strain); settings: Mannheimia haemolytica MH 6374; for MIC: read-out: MIC MH 6374
Experimental: as §1, §2, §3, §4, §5

[6] = test system: Pasteurella multocida PM 12080 (IV102277-0093, BRD field isolate); settings: Pasteurella multocida PM 12080; for MIC: read-out: MIC PM 12080
Experimental: as §1, §2, §3, §4, §5

[7] = test system: Mannheimia haemolytica MH 12587 (1071, BRD field isolate, macrolide-resistance: erm+, E+); settings: Mannheimia haemolytica MH 12587, macrolide-resistant
Experimental: as §1, §2, §3, §4, §5

[8] = test system: Mannheimia haemolytica MH 10720 (154, BRD field isolate); settings: Mannheimia haemolytica MH 10720; for MIC: read-out: MIC MH 10720
Experimental: as §1, §2, §3, §4, §5

[9] = test system: Pasteurella multocida PM 6391 (ATCC 43137, reference strain); settings: Pasteurella multocida PM 6391; for MIC: read-out: MIC PM 6391
Experimental: as §1, §2, §3, §4, §5

Structure (SMILES)	MIC [1] [µM]	MIC [2] [µM]	MIC [3] [µM]	MIC [4] [µM]	MIC [5] [µM]	MIC PM 12080 [6]	MIC MH 12587 [7] [µM]	MIC [8] [µM]	MIC [9] [µM]	MIC [6] [µM]	MIC PM 6391 [9]	MIC MH 10720 [8]	MIC ([5]; ATCC33396) [µM]	MIC ([9]; ATCC43137) [µM]	MIC MH 6357 [3]	MIC PM 6267 [4]	MIC MH 6374 [5]
CC(C)(N)C(NC(=O)c1ccc(C#Cc2ccc(CNCc3ccnc(Cl)c3)s2)cc1)C(=O)NO (stereo not shown) [Compound 533]	0.8 (≈ 0.41 µg/mL)	0.8 (≈ 0.41 µg/mL)	0.8 (≈ 0.41 µg/mL)	1.6 (≈ 0.819 µg/mL)	0.8 (≈ 0.41 µg/mL)	<=0.1 μM	1.6 (≈ 0.819 µg/mL)	0.2 (≈ 0.102 µg/mL)	0.2 (≈ 0.102 µg/mL)	–	–	–	–	–	–	–	–
COc1ccc(CNCc2ccc(C#Cc3ccc(C(=O)NC(C(=O)NO)C(C)(C)N)cc3)cc2)cc1 (stereo not shown) [Compound 513]	1.6 (≈ 0.801 µg/mL)	1.6 (≈ 0.801 µg/mL)	1.6 (≈ 0.801 µg/mL)	1.6 (≈ 0.801 µg/mL)	0.8 (≈ 0.4 µg/mL)	–	1.6 (≈ 0.801 µg/mL)	0.2 (≈ 0.1 µg/mL)	0.2 (≈ 0.1 µg/mL)	0.2 (≈ 0.1 µg/mL)	–	–	–	–	–	–	–
CC(C)(N)C(NC(=O)c1ccc(C#Cc2ccc(CNCc3ccccc3)s2)cc1)C(=O)NO (stereo not shown) [Compound 525]	0.8 (≈ 0.381 µg/mL)	0.8 (≈ 0.381 µg/mL)	0.8 (≈ 0.381 µg/mL)	1.6 (≈ 0.763 µg/mL)	0.4 (≈ 0.191 µg/mL)	<=0.1 μM	1.6 (≈ 0.763 µg/mL)	0.2 (≈ 0.0953 µg/mL)	0.2 (≈ 0.0953 µg/mL)	–	–	–	–	–	–	–	–
CC(C)(N)C(NC(=O)c1ccc(C#Cc2ccc(CNCc3cccnc3)s2)cc1)C(=O)NO (stereo not shown) [Compound 532]	1.6 (≈ 0.764 µg/mL)	0.8 (≈ 0.382 µg/mL)	1.6 (≈ 0.764 µg/mL)	1.6 (≈ 0.764 µg/mL)	0.8 (≈ 0.382 µg/mL)	<=0.1 μM	1.6 (≈ 0.764 µg/mL)	0.2 (≈ 0.0955 µg/mL)	–	–	<=0.1 μM	–	–	–	–	–	–
CC(C)(N)C(NC(=O)c1ccc(C#Cc2ccc(CNCc3cccs3)nc2)cc1)C(=O)NO (racemic) [Compound 549]	1.6 (≈ 0.764 µg/mL)	0.8 (≈ 0.382 µg/mL)	0.8 (≈ 0.382 µg/mL)	0.8 (≈ 0.382 µg/mL)	0.4 (≈ 0.191 µg/mL)	<=0.1 μM	1.6 (≈ 0.764 µg/mL)	0.4 (≈ 0.191 µg/mL)	–	–	<=0.1 μM	–	–	–	–	–	–
CC(C)(N)C(NC(=O)c1ccc(C#Cc2ccc(CNC3CC3)s2)cc1)C(=O)NO (stereo not shown) [C. 521]	0.8 (≈ 0.341 µg/mL)	1.6 (≈ 0.682 µg/mL)	0.8 (≈ 0.341 µg/mL)	0.8 (≈ 0.341 µg/mL)	0.4 (≈ 0.171 µg/mL)	<=0.1 μM	0.8 (≈ 0.341 µg/mL)	–	–	–	<=0.1 μM	<=0.1 μM	–	–	–	–	–
COc1ccc(CNCc2ccc(C#Cc3ccc(C(=O)NC(C(=O)NO)C(C)(C)N)cc3)s2)cc1 (stereo not shown) [Compound 526]	1.6 (≈ 0.811 µg/mL)	0.8 (≈ 0.405 µg/mL)	0.8 (≈ 0.405 µg/mL)	1.6 (≈ 0.811 µg/mL)	0.4 (≈ 0.203 µg/mL)	–	1.6 (≈ 0.811 µg/mL)	0.2 (≈ 0.101 µg/mL)	0.2 (≈ 0.101 µg/mL)	0.2 (≈ 0.101 µg/mL)	–	–	–	–	–	–	–
CC(C)(N)C(NC(=O)c1ccc(C#Cc2ccc(N)cc2)cc1)C(=O)NO (stereo not shown) [C. 553, N-(3-amino-1-(hydroxyamino)-3-methyl-1-oxobutan-2-yl)-4-((4-aminophenyl)ethynyl)benzamide]	0.8 (≈ 0.293 µg/mL)	1.6 (≈ 0.586 µg/mL)	0.8 (≈ 0.293 µg/mL)	0.8 (≈ 0.293 µg/mL)	–	–	–	0.2 (≈ 0.0733 µg/mL)	–	≤ 0.1	–	–	0.4 (≈ 0.147 µg/mL)	≤ 0.1	–	–	–
CC(C)(N)C(NC(=O)c1ccc(C#Cc2ccc(CNCc3ccco3)nc2)cc1)C(=O)NO (racemic) [Compound 548]	1.6 (≈ 0.738 µg/mL)	0.8 (≈ 0.369 µg/mL)	1.6 (≈ 0.738 µg/mL)	1.6 (≈ 0.738 µg/mL)	0.8 (≈ 0.369 µg/mL)	<=0.1 μM	1.6 (≈ 0.738 µg/mL)	0.2 (≈ 0.0923 µg/mL)	0.2 (≈ 0.0923 µg/mL)	–	–	–	–	–	–	–	–
CC(C)(N)C(NC(=O)c1ccc(C#Cc2ccc(CNCc3cccs3)s2)cc1)C(=O)NO (stereo not shown) [Compound 536]	0.8 (≈ 0.386 µg/mL)	0.4 (≈ 0.193 µg/mL)	0.8 (≈ 0.386 µg/mL)	0.8 (≈ 0.386 µg/mL)	0.2 (≈ 0.0965 µg/mL)	<=0.1 μM	0.8 (≈ 0.386 µg/mL)	–	–	–	<=0.1 μM	<=0.1 μM	–	–	–	–	–
CC(C)(N)C(NC(=O)c1ccc(C#Cc2ccc(CNCc3ccco3)cc2)cc1)C(=O)NO (stereo not shown) [C. 518]	0.8 (≈ 0.368 µg/mL)	0.8 (≈ 0.368 µg/mL)	0.8 (≈ 0.368 µg/mL)	0.8 (≈ 0.368 µg/mL)	0.4 (≈ 0.184 µg/mL)	<=0.1 μM	0.8 (≈ 0.368 µg/mL)	–	–	–	–	<=0.1 μM	–	–	–	–	–
C=CCNCc1ccc(C#Cc2ccc(C(=O)NC(C(=O)NO)C(C)(C)N)cc2)s1 (stereo not shown) [C. 522]	1.6 (≈ 0.682 µg/mL)	0.8 (≈ 0.341 µg/mL)	1.6 (≈ 0.682 µg/mL)	1.6 (≈ 0.682 µg/mL)	0.4 (≈ 0.171 µg/mL)	<=0.1 μM	1.6 (≈ 0.682 µg/mL)	0.2 (≈ 0.0853 µg/mL)	0.2 (≈ 0.0853 µg/mL)	–	–	–	–	–	–	–	–
Cc1ccc(CNCc2ccc(C#Cc3ccc(C(=O)NC(C(=O)NO)C(C)(C)N)cc3)s2)cc1 (stereo not shown) [Compound 537]	1.6 (≈ 0.785 µg/mL)	0.8 (≈ 0.393 µg/mL)	0.8 (≈ 0.393 µg/mL)	1.6 (≈ 0.785 µg/mL)	0.8 (≈ 0.393 µg/mL)	<=0.1 μM	1.6 (≈ 0.785 µg/mL)	0.2 (≈ 0.0981 µg/mL)	0.2 (≈ 0.0981 µg/mL)	–	–	–	–	–	–	–	–
CC(C)(N)C(NC(=O)c1ccc(C#Cc2ccc(CNCc3ccco3)s2)cc1)C(=O)NO (stereo not shown) [Compound 535]	0.8 (≈ 0.373 µg/mL)	0.4 (≈ 0.187 µg/mL)	0.8 (≈ 0.373 µg/mL)	0.8 (≈ 0.373 µg/mL)	0.2 (≈ 0.0933 µg/mL)	<=0.1 μM	0.8 (≈ 0.373 µg/mL)	–	–	–	<=0.1 μM	<=0.1 μM	–	–	–	–	–
CC(C)(N)C(NC(=O)c1ccc(C#Cc2ccc(CNCc3ccncc3)s2)cc1)C(=O)NO (stereo not shown) [Compound 527]	1.6 (≈ 0.764 µg/mL)	0.8 (≈ 0.382 µg/mL)	0.8 (≈ 0.382 µg/mL)	1.6 (≈ 0.764 µg/mL)	0.8 (≈ 0.382 µg/mL)	<=0.1 μM	0.8 (≈ 0.382 µg/mL)	0.2 (≈ 0.0955 µg/mL)	–	–	<=0.1 μM	–	–	–	–	–	–
C[C@@H](O)[C@H](NC(=O)c1ccc(C#Cc2ccc(CN3CC=CC3)cc2)cc1)C(=O)NO [Compound 468]	0.4 (≈ 0.168 µg/mL)	–	–	–	–	<=0.1 μM	0.4 (≈ 0.168 µg/mL)	–	–	–	<=0.1 μM	<=0.1 μM	–	–	<=0.1 μM	<=0.1 μM	<=0.1 μM
COCCNCc1ccc(C#Cc2ccc(C(=O)NC(C(=O)NO)C(C)(C)N)cc2)s1 (stereo not shown) [Compound 523]	1.6 (≈ 0.711 µg/mL)	1.6 (≈ 0.711 µg/mL)	1.6 (≈ 0.711 µg/mL)	–	0.8 (≈ 0.356 µg/mL)	<=0.1 μM	1.6 (≈ 0.711 µg/mL)	0.4 (≈ 0.178 µg/mL)	0.2 (≈ 0.0889 µg/mL)	–	–	–	–	–	–	–	–
Cc1cnc(CNCc2ccc(C#Cc3ccc(C(=O)N[C@H](C(=O)NO)[C@@H](C)O)cc3)cn2)o1 [Compound 495]	1.6 (≈ 0.742 µg/mL)	–	0.4 (≈ 0.185 µg/mL)	–	1.6 (≈ 0.742 µg/mL)	<=0.1 μM	1.6 (≈ 0.742 µg/mL)	–	–	–	<=0.1 μM	<=0.1 μM	–	–	–	<=0.1 μM	–
CC(C)(N)C(NC(=O)c1ccc(C#Cc2ccc([N+](=O)[O-])cc2)cc1)C(=O)NO (stereo not shown) [C. 552, N-[2-amino-1-(hydroxycarbamoyl)-2-methyl-propyl]-4-[2-(4-nitrophenyl)ethynyl]benzamide]	0.8 (≈ 0.317 µg/mL)	0.8 (≈ 0.317 µg/mL)	0.8 (≈ 0.317 µg/mL)	0.8 (≈ 0.317 µg/mL)	–	–	–	0.2 (≈ 0.0793 µg/mL)	–	≤ 0.1	–	–	0.2 (≈ 0.0793 µg/mL)	≤ 0.1	–	–	–
CC(C)(C(NC(=O)c1ccc(C#Cc2ccc(CNC3CC3)cc2)cc1)C(=O)NO)[N+](=O)[O-] (stereo not shown) [Compound 554]	0.4 (≈ 0.18 µg/mL)	0.4 (≈ 0.18 µg/mL)	0.4 (≈ 0.18 µg/mL)	0.4 (≈ 0.18 µg/mL)	0.4 (≈ 0.18 µg/mL)	<=0.1 μM	0.8 (≈ 0.36 µg/mL)	–	–	–	–	<=0.1 μM	–	–	–	–	–
CC(O)C(NC(=O)c1ccc(C#CC#CC=CCNCc2ccnc(Cl)c2)cc1)C(=O)NO (stereo not shown) [Compound 461]	1.6 (≈ 0.747 µg/mL)	–	0.4 (≈ 0.187 µg/mL)	–	0.4 (≈ 0.187 µg/mL)	<=0.1 μM	1.6 (≈ 0.747 µg/mL)	–	–	–	<=0.1 μM	<=0.1 μM	–	–	–	<=0.1 μM	–
